In US20070191364A1, “AMINOPIPERIDINE DERIVATIVES, PREPARATION THEREOF AND THERAPEUTIC USE THEREOF” (SANOFI-AVENTIS, priority 2004, published 2007):
Structures can show the parent of a compound that is named as a salt.

Columns and labels:
human MC3 receptor = target: T1, human MC3 receptor (Homo sapiens, UniProt P41968); experiment: Functional agonist assay: cAMP formation in CHO(dhfr-) cells; format: cell-based; settings: 1 hour incubation, read-out: EC50 with respect to the MC3 receptor
T1 construct: expressed in transfected cells; host or cells: CHO(dhfr-)
Experimental: (§1) A functional assay is used to differentiate between the agonist activity and the antagonist activity. For this, the formation of cyclic adenosine monophosphate (cAMP) generated by activation of the MC3 receptor or of the MC4 receptor is assayed.
CHO(dhfr-) cells expressing the human MC3 receptor are seeded into MEM Eagle culture medium (Sigma) containing 10% of dialysed calf serum, 1% L-glutamine, 1% sodium pyruvate, 20 mg/500 ml L-proline, 0.3 mg/ml Geneticin and 0.5% PenStrep, these products being provided by Gibco/BR1, except for the dialysed calf serum (Cambrex) and the L-proline (Sigma).
(§2) The compounds to be tested (diluted in 10% DMSO), in an amount of 10 μl at a concentration of 10 times the final concentration, are added to the plates of cells (final volume=100 μl/well). After incubation for 1 hour (37° C., 5% CO2), the amount of cAMP is assayed using Tropix kits (Appelera) according to the supplier's documentation. The intrinsic activity of the compounds is calculated by comparing the stimulation of cAMP by these compounds to the stimulation induced by 30 nM of NDP[…]MSH (maximum of 100%). The EC50 value for the compounds corresponds to the concentration which produces 50% of the maximum stimulation obtained with this compound.

human MC4 receptor [1] = target: T2, human MC4 receptor (Homo sapiens, UniProt P32245); experiment: Functional agonist assay: cAMP formation in CHO-K1 cells; format: cell-based; settings: 1 hour incubation, read-out: EC50 with respect to the MC4 receptor
T2 construct: host or cells: CHO-K1
Experimental: as §1
CHO-K1 cells, expressing the human MC4 receptor at a moderate density (Euroscreen), are seeded into DMEM/Nutrient Mix F12 culture medium (Gibco/BR1) containing 10% of foetal calf serum, 0.5% sodium pyruvate, 1% L-glutamine, 1% non-essential amino acids, 200 mg/l hygromycin B and 0.5% PenStrep, these products being provided by Gibco/BR1, except the calf serum (Biowhittaker) and hygromycin B (Sigma).
as §2

human MC4 receptor [2] = target: T2, human MC4 receptor; experiment: Affinity assay: displacement of [125I]-[Nle4,D-Phe7]-α-MSH binding to membranes of CHO-K1 cells (SPA); settings: radioligand displacement, 100 pM [125I]-NDP-α-MSH, 6 h; read-out: IC50 with respect to the MC4 receptor
Experimental: This affinity assay is carried out by measuring the binding of [^125I]-[Nle^4-D-Phe^7]-[…]-MSH to cell membranes. The displacement of this radioligand is used to identify inhibitors of the specific binding to recombinant melanocortin receptors.
For this assay, membranes prepared from CHO-K1 cells expressing the human MC4 receptor at high density (Euroscreen) or membranes, that were purchased (Perkin Elmer Life Sciences, Receptor Biology), of HEK-293 cells expressing hMC3 receptors were used. CHO-K1 cells transfected with the hMC4 receptor gene (Euroscreen) are seeded into DMEM/Nutrient Mix F12 culture medium containing 10% foetal calf serum (Biowhittaker), 1% sodium pyruvate, 1% L-glutamine, 1% non-essential amino acids, 0.4 mg/ml geneticin (G418) and 0.5% PenStrep, these products being provided by Gibco/BR1, except the calf serum. At 80% confluency, the cells are scraped off and the cell pellets are frozen at −80° C. […]
[^125I]-[Nle^4, D-Phe^7]-[…]-MSH is diluted in binding buffer+0.2% BSA. […] The nonspecific binding is defined by NDP-[…]MSH at 10^−7 M. The total binding is measured by the number of counts per minute in the presence of the radioligand alone. […]

T2 sequence (P32245 whole entry): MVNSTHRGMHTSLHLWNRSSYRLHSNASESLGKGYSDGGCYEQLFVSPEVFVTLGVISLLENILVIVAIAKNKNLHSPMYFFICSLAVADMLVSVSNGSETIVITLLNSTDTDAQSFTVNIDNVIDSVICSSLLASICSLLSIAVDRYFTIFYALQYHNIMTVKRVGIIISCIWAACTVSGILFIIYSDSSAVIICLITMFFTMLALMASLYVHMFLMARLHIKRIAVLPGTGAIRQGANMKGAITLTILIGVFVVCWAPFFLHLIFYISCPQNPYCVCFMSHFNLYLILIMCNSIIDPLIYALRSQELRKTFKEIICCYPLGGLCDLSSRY
T1 sequence (P41968 whole entry): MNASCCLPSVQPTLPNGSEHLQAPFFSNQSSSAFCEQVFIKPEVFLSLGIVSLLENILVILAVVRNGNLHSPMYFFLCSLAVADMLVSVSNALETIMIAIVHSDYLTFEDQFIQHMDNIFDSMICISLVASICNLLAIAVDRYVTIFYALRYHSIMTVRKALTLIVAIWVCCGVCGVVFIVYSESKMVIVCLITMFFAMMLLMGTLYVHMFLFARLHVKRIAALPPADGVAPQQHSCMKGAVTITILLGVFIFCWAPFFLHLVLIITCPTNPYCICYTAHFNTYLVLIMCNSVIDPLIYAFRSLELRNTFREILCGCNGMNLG

melting point [°C] | EC50 (human MC3 receptor) [nM] | EC50 (human MC4 receptor [1]) [nM] | IC50 (human MC4 receptor [2]) [nM] | SMILES
> 220 |  |  |  | CCN(CC)C(=O)N(C1CCCCC1)C1CCN(C(=O)[C@@H](Cc2ccc(Cl)cc2)NC2CCNCC2)CC1 (as salt: HCl) [Compound 1, N-[1-(4-chloro-N-piperidin-4-yl-D-phenylalanyl)piperidin-4-yl]-N-cyclohexyl-N′,N′-diethylurea]
195 |  |  |  | CCN(CC)C(=O)N(C1CCCCC1)C1CCN(C(=O)[C@@H](Cc2ccc(Cl)cc2)NC2CCC(N)CC2)CC1 (stereo partly drawn) (as salt: HCl) [Compound 2, N-{1-[N-(4-aminocyclohexyl)-4-chloro-D-phenylalanyl]piperidin-4-yl}-N-cyclohexyl-N′,N′-diethylurea hydrochloride]
 | 590 | 80 |  | CCN(CC)C(=O)N(C1CCCCC1)C1CCN(C(=O)[C@@H](Cc2ccc(Cl)cc2)NC2CCNCC2)CC1 [Compound 1, N-[1-(4-chloro-N-piperidin-4-yl-D-phenylalanyl)piperidin-4-yl]-N-cyclohexyl-N′,N′-diethylurea]
 | 370 | 30 | 300 | CCN(CC)C(=O)N(C1CCCCC1)C1CCN(C(=O)[C@@H](Cc2ccc(Cl)cc2)NC2CCC(N)CC2)CC1 (stereo partly drawn) [Compound 2, N-{1-[N-(4-aminocyclohexyl)-4-chloro-D-phenylalanyl]piperidin-4-yl}-N-cyclohexyl-N′,N′-diethylurea hydrochloride]
